These results are taken from patent US20260376293A1, “METHODS FOR STUDYING GPR158 PHARMACOLOGY AND IDENTIFICATION OF ITS LIGANDS” (UNIVERSITY OF FLORIDA RESEARCH FOUNDATION, INCORPORATED, priority 2022, published 2026).

This experiment concerns the target T1, GPR158 (Homo sapiens, UniProt Q5T848).
T1 sequence (Q5T848 24-1215): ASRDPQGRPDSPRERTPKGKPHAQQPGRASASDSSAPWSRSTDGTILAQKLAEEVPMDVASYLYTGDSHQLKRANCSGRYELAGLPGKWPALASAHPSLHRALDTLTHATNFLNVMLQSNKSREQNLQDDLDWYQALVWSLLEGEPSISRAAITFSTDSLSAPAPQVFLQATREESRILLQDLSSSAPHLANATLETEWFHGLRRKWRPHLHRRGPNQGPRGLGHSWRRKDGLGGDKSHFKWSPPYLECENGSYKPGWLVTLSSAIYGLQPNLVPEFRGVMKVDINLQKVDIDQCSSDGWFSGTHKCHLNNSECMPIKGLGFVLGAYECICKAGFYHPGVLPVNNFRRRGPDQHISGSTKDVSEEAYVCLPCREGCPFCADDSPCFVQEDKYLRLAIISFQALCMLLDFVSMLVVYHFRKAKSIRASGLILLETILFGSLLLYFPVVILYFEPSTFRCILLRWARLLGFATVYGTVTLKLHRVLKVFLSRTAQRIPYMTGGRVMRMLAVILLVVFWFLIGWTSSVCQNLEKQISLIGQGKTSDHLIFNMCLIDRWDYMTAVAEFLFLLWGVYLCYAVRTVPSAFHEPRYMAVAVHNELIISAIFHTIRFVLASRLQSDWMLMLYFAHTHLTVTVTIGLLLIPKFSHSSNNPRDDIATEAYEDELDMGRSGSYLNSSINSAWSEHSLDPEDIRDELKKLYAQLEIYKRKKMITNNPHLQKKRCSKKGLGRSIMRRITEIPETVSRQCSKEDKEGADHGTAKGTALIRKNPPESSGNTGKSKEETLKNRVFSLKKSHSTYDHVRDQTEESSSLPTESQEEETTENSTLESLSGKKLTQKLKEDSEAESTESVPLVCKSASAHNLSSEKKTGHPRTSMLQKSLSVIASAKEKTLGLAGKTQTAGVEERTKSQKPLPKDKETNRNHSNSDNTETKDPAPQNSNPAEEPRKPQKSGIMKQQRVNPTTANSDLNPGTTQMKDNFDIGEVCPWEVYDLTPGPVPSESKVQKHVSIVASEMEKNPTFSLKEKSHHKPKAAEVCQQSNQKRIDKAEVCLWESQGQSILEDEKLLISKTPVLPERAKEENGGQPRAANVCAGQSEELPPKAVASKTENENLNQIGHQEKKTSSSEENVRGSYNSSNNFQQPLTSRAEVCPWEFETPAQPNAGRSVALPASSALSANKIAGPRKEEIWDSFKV
Description: Membrane radioligand saturation binding (Scatchard). The conditions noted are these: for Kd: Scatchard plot, HEK293 membranes expressing GPR158, n=4. Also noted: expressed in transfected cells; host or cells: HEK293FT. As for the experimental part: FIGS. 9A-9H. Direct interaction of glycine with GPR158 A) Schematics of assay design for detecting glycine binding to GPR158 by flow cytometry. Cells transfected with GPR158 are incubated with FITC-glycine and fluorescence labeling of cells is detected by flow cytometry. B) Representative flow cytometry histogram showing distribution of cellular populations after sorting. C) Quantification of FITC-glycine binding detected in flow cytometry binding experiments. The median of fluorescence (MFI) is quantified and plotted. Error bars are s.e.m. values, N=3, **p<0.01, ****p<0.0001, two-way ANOVA. D) Schematics of the radioligand binding assay. E) Quantification of ^3H-glycine binding to membrane expressing GPR158. Count Per minute (CPM) are measured and plotted. Data shown mean of 4 independent experiments error bars are s.e.m. values, n=4. […] Data shown mean of 4 independent experiments error bars are s.e.m. values, n=4. […] Control (thick line), GPR158 (thin line) I) Quantification of binding determined by fitting the integrated isotherm to an independent binding model.
Next, the inventors performed radioligand binding assays examining binding of [^3H]-labeled glycine to HEK293 cells expressing GPR158 (FIG. 7A). […] The inventors detected saturable [^3H]-glycine binding to membranes containing GPR158 is substantial excess over linear non-specific binding to membranes devoid of GPR158 (FIG. 9E). […]
Membrane binding assay was conducted using HEK293FT cells cultured in 6 well plates at the density of 10^6 per well and transfected with 2 μg of cDNA of GPR158 or empty pcDNA3.1+ for ctrl cells using Metafectene Pro. […] Finally, each filter was incubated in 5 ml of scintillation cocktail (Ecoscint XR, National Diagnostics), homogenized and radioactivity were measured using the liquid scintillation counter Hidex 600SL. The saturation binding curve, Scatchard plots and affinity KD and Bmax constants were calculated using Graphpad Prism 9.0 by fitting a non-linear regression binding saturation curve. […]

What is called Kd is the free concentration of one partner at which half of the binding sites on the other are occupied at equilibrium, for simple one-to-one binding. Higher therefore signals lower affinity. For `NCC(=O)O` [^3H-glycine, [^3H]-glycine], binding was put at a Kd of 2.62 ± 1.82 µM. Also, the “binding to membranes containing GPR158” value (excess over linear non-specific binding to membranes devoid of GPR158) is “saturable”. `NCC(=O)O` [glycine] returned an equilibrium dissociation constant (Kd) of about 3 µM.
